According to US20260217732A1, “WRN INHIBITOR” (SUZHOU PUHE BIOPHARMA CO., LTD., priority 2022, published 2026):
Where two headings read alike, the source gives them in different places. Values belong to the compound of their own block, whether it stands above or below them.

Key:
WRN enzyme = biological target: T1, WRN enzyme (Homo sapiens, UniProt Q14191); experiment: WRN helicase hydrolysis (unwinding) of double-stranded DNA, fluorescence assay; assay type: biochemical; settings: 30 min pre-incubation, 60 min reaction
T1 construct: 10 μL (2×) of WRN enzyme solution was added
Procedure: • The molecules of the present disclosure were tested for their activities on the WRN helicase hydrolysis of double-stranded DNA (Table 1).
A working solution to be tested and a buffer were prepared. The compound to be tested was dissolved in DMSO and subjected to 4× dilution (with 10 μM final concentration as the starting concentration). 0.2 μL of the solution of the compound to be tested was added to the 384-well plate and 10 μL (2×) of WRN enzyme solution was added. The solution was incubated in the dark for 30 minutes. Then, 10 μL of a substrate detection solution containing double-stranded DNA was added to initiate the reaction (the DNA has a length of 19 bp, and labeled with TAMRA and BHQ2 at 3′ and 5′-ends, respectively). The solution was incubated at room temperature for 60 minutes. The inhibitory activities (IC50) against WRN enzyme were calculated based on the change of Ex530/Em590 in the blank group (DMSO) and the compound group.

[1] = system: SW48 colorectal cancer cells; experiment: 2D antiproliferation on MSI-H SW48 cells, CTG, 5 days; assay type: cell-based; settings: for IC50 / inhibition at 38.15 pM / inhibition at 0.000152588 µM / inhibition at 0.000610352 µM / inhibition at 0.00244141 µM / inhibition at 0.00976562 µM / inhibition at 0.0390625 µM / inhibition at 0.15625 µM / inhibition at 0.625 µM / inhibition at […] / inhibition at 10 µM: Homo sapiens; for IC50: 120 h, SW48 MSI-H, 5 days; for inhibition at 38.15 pM: SW48, 0.038146973 nM; for inhibition at 0.000152588 µM: SW48, 0.152587891 nM; for inhibition at 0.000610352 µM: SW48, 0.610351563 nM; for inhibition at 0.00244141 µM: SW48, 2.44140625 nM; for inhibition at 0.00976562 µM: SW48, 9.765625 nM; for inhibition at 0.0390625 µM: SW48, 39.0625 nM; for inhibition at 0.15625 µM: SW48, 156.25 nM; for inhibition at 0.625 µM: SW48, 625 nM; for inhibition at […]: SW48, 2500 nM; for inhibition at 10 µM: SW48, 10000 nM
Procedure: The molecules of the present disclosure were tested for their anti-proliferative activity on MSI-H tumor cells.
SW48 colorectal cancer cells with MSI were cultured in a RMI1640 medium containing 10% FBS and 1% penicillin-streptomycin, and the mixture was cultured in a 37° C., 5% CO2 incubator. 40 μL of cell suspension was added to each well of a 384-well microplate. […] of compounds with different concentrations were added to each well using Echo, and the mixtures were cultured in a 37° C., 5% CO2 incubator for 5 days. 40 μL of CTG solution (Promega, Cat No. G7573) was added to each well and incubated in a 37° C., 5% CO2 incubator in the dark for 30 minutes. The luminescence value was read using an Envision multi-function microplate reader (Perkin Elmer, catalog number Envision 2104). The optical signal is proportional to the amount of ATP in the system, while the ATP content directly characterizes the number of viable cells in the system.

[2] = system: HT-29 colorectal cancer cells; experiment: 2D antiproliferation on MSS HT-29 cells, CTG, 5 days; assay type: cell-based; settings: Homo sapiens, 120 h, HT-29 MSS
Procedure: The molecules of the invention were tested for their anti-proliferative activities on MSS tumor cells.
HT-29 colorectal cancer cells with MSS were cultured in a McCoy's 5A medium containing 10% FBS and 1% penicillin-streptomycin in a 37° C., 5% CO2 constant temperature incubator. 40 μL of cell suspension was added to each well of a 384-well microplate. […] of compounds with different concentrations were added to each well using Echo. The mixtures were cultured in a 37° C., 5% CO2 constant temperature incubator for 5 days. 40 μL of CTG solution (Promega, Cat No. G7573) was added to each well, and the mixture was incubated in a 37° C., 5% CO2 constant temperature incubator for 30 minutes in the dark. The luminescence value was read using an Envision multi-function microplate reader (Perkin Elmer, catalog number Envision 2104). The optical signal is proportional to the amount of ATP in the system, while the ATP content directly characterizes the number of viable cells in the system.

[3] = read-out: Average Value/Inhibition Rate
[4] = read-out: Test 1/Inhibition Rate
[5] = read-out: Test 2/Inhibition Rate

T1 sequence (Q14191 whole entry): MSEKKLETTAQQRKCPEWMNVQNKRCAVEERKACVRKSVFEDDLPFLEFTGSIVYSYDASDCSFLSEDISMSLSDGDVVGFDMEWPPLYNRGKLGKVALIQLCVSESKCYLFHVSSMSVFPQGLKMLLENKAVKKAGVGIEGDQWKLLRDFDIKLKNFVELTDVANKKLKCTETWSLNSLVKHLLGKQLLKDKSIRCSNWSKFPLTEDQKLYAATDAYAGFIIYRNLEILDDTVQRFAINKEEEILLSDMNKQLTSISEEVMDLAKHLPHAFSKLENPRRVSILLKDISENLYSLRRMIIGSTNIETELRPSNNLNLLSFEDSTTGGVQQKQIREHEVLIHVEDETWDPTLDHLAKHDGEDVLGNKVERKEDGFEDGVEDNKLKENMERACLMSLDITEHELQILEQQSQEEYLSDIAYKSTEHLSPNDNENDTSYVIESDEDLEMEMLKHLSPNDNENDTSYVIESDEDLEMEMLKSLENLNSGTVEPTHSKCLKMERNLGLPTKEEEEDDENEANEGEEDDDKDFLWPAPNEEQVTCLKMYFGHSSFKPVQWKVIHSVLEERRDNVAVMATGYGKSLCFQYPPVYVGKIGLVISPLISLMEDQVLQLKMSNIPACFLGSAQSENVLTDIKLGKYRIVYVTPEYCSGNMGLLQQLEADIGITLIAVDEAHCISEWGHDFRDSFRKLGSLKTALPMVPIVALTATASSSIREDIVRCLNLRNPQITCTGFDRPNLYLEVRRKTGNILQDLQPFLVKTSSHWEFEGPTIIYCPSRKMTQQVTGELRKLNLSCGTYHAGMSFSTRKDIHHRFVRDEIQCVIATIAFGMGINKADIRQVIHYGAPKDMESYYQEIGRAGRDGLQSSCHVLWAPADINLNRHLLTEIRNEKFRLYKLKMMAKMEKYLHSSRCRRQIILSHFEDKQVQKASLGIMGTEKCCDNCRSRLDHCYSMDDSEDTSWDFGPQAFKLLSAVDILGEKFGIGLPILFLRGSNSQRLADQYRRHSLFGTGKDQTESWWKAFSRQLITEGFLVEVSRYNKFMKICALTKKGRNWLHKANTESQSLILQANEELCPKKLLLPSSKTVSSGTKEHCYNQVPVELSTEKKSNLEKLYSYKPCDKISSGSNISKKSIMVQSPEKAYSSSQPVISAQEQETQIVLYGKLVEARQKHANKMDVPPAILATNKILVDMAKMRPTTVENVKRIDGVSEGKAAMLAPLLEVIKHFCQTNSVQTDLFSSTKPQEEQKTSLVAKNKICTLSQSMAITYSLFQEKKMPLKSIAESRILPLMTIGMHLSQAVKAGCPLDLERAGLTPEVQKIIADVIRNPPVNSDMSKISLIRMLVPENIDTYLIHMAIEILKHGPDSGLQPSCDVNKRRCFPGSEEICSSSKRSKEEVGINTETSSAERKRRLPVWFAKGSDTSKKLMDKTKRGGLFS

Compound: CCc1c(N2CCN(C(=O)c3ncccc3O)CC2)c(=O)n2nc(-c3cc4cnccc4s3)nc2n1CC(=O)Nc1ccc(C(F)(F)F)cc1Cl [P18]
IC50 (WRN enzyme): 1.8 nM | IC50 [1]: 499 nM | IC50 [2]: 4870 nM

Compound: CCc1c(N2CC[C@@H](NC(=O)c3ncnc(C)c3O)C2)c(=O)n2nc(C3=CCOCC3)nc2n1CC(=O)Nc1ccc(C(F)(F)F)cc1Cl [P2]
IC50 (WRN enzyme): 2.3 nM | IC50 [1]: 1110 nM

Compound: CCc1c(N2CCN(C(=O)c3ncccc3O)CC2)c(=O)n2nc(-c3ccc4c(c3)OCO4)nc2n1CC(=O)Nc1ccc(C(F)(F)F)cc1Cl [P21]
IC50 (WRN enzyme): 3.3 nM | IC50 [1]: 480 nM | IC50 [2]: > 10000 nM

Compound: CCc1c(N2CCN(C(=O)c3ncccc3O)CC2)c(=O)n2nc(-c3cnc(COC)s3)nc2n1CC(=O)Nc1ccc(C(F)(F)F)cc1Cl [P33]
IC50 (WRN enzyme): 1.8 nM | IC50 [1]: 139 nM | IC50 [2]: > 10000 nM

Compound: CCc1c(N2CCN(C(=O)c3ncccc3O)CC2)c(=O)n2nc(-c3cc4ccncc4s3)nc2n1CC(=O)Nc1ccc(C(F)(F)F)cc1Cl [P17]
IC50 (WRN enzyme): 2.3 nM | IC50 [1]: 360 nM | IC50 [2]: > 10000 nM

Compound: CCc1c(N2CCN(C(=O)c3ncccc3O)CC2)c(=O)n2nc(-c3cc4c(s3)COC4)nc2n1CC(=O)Nc1ccc(C(F)(F)F)cc1 [P28]
IC50 [1]: 136 nM | IC50 [2]: > 10000 nM

Compound: CCc1c(N2CCN(C(=O)c3ncccc3O)CC2)c(=O)n2nc(-c3ccc(C(C)=O)s3)nc2n1CC(=O)Nc1ccc(C(F)(F)F)cc1Cl [P15]
IC50 (WRN enzyme): 1.6 nM | IC50 [1]: 381 nM | IC50 [2]: > 10000 nM

Compound: CCc1c(N2CCN(C(=O)c3ncccc3O)CC2)c(=O)n2nc(-c3cncs3)nc2n1CC(=O)Nc1ccc(C(F)(F)F)cc1Cl [P5]
IC50 (WRN enzyme): 1.6 nM | IC50 [2]: > 10000 nM

Compound: CCc1c(N2CCN(C(=O)c3ncccc3O)CC2)c(=O)n2nc(-c3sccc3N)nc2n1CC(=O)Nc1ccc(C(F)(F)F)cc1Cl [P8]
IC50 (WRN enzyme): 3.7 nM | IC50 [1]: 566 nM

Compound: CCc1c(N2CCN(C(=O)c3ncccc3O)CC2)c(=O)n2nc(-c3cnc(C(C)=O)s3)nc2n1CC(=O)Nc1ccc(C(F)(F)F)cc1Cl [P12]
IC50 (WRN enzyme): 9.4 nM | IC50 [1]: 450 nM | IC50 [2]: > 10000 nM

Compound: CCc1c(N2CCN(C(=O)c3ncccc3O)CC2)c(=O)n2nc(-c3c[nH]c4ncncc34)nc2n1CC(=O)Nc1ccc(C(F)(F)F)cc1Cl [P41]
IC50 [1]: 2080 nM | IC50 [2]: 5590 nM

Compound: CCc1c(N2CCN(C(=O)c3ncccc3O)CC2)c(=O)n2nc(-c3cnc(CO)s3)nc2n1CC(=O)Nc1ccc(C(F)(F)F)cc1Cl [P11]
IC50 (WRN enzyme): 1.7 nM | IC50 [1]: 127 nM | IC50 [2]: > 10000 nM

Compound: CCc1c(N2CCN(C(=O)c3ncnc(C)c3O)CC2)c(=O)n2nc(-c3cc4cncnc4s3)nc2n1CC(=O)Nc1ccc(C(F)(F)F)cc1Cl [P42]
IC50 [1]: 620 nM | IC50 [2]: > 10000 nM

Compound: CCc1c(N2CCN(C(=O)c3ncnc(C)c3O)CC2)c(=O)n2nc(-c3ccc4nccn4c3)nc2n1CC(=O)Nc1ccc(C(F)(F)F)cc1C [P47]
IC50 [1]: 480 nM | IC50 [2]: > 10000 nM

Compound: CCc1c(N2CCN(C(=O)c3ncnc(C)c3O)CC2)c(=O)n2nc(-c3cc4cncnc4[nH]3)nc2n1CC(=O)Nc1ccc(C(F)(F)F)cc1Cl [P44]
IC50 [1]: > 10000 nM | IC50 [2]: > 10000 nM

Compound: CCc1c(N2CCN(C(=O)c3ncnc(C)c3O)CC2)c(=O)n2nc(-c3ccc4nccn4c3)nc2n1CC(=O)Nc1ccc(C(F)(F)F)cc1F [P46]
IC50 [1]: 452 nM | IC50 [2]: > 10000 nM

Further compounds by falling IC50 [1], results first:

IC50 (WRN enzyme): 1.6 nM | IC50 [1]: 126 nM | IC50 [2]: > 10000 nM
Compound: CCc1c(N2CCN(C(=O)c3ncccc3O)CC2)c(=O)n2nc(-c3cc4c(s3)COC4)nc2n1CC(=O)Nc1ccc(C(F)(F)F)cc1Cl [P20]

IC50 (WRN enzyme): 2.1 nM | IC50 [1]: 125 nM | IC50 [2]: > 10000 nM
Compound: CCc1c(N2CCN(C(=O)c3ncccc3O)CC2)c(=O)n2nc(-c3ccc(COC)s3)nc2n1CC(=O)Nc1ccc(C(F)(F)F)cc1Cl [P10]

IC50 (WRN enzyme): 2.9 nM | IC50 [1]: 123 nM | IC50 [2]: > 10000 nM
Compound: CCc1c(N2CCN(C(=O)c3ncccc3O)CC2)c(=O)n2nc(-c3cc4c(s3)COC4)nc2n1CC(=O)Nc1ccc(C(F)(F)F)c2ccsc12 [P58]

IC50 (WRN enzyme): 4.4 nM | IC50 [1]: 97 nM | IC50 [2]: > 10000 nM
Compound: CCc1c(N2CCN(C(=O)c3ncccc3O)CC2)c(=O)n2nc(-c3[nH]nc4sccc34)nc2n1CC(=O)Nc1ccc(C(F)(F)F)cc1Cl [P14]

IC50 [1]: 82 nM | IC50 [2]: > 10000 nM
Compound: CCc1c(N2CCN(C(=O)c3ncnc(C)c3O)CC2)c(=O)n2nc(-c3cc4cn[nH]c4s3)nc2n1CC(=O)Nc1ccc(C(F)(F)F)cc1Cl [P19]
inhibitory activity on SW48 cells ([1]; 39 nM): high inhibitory activity | inhibition at 38.15 pM [1, 3]: -0.502% | inhibition at 38.15 pM [1, 4]: 2.13% | inhibition at 38.15 pM [1, 5]: -3.13% | inhibition at 0.000152588 µM [1, 3]: -1.21% | inhibition at 0.000152588 µM [1, 4]: -2.38% | inhibition at 0.000152588 µM [1, 5]: -0.0356% | inhibition at 0.000610352 µM [1, 3]: 2.86% | inhibition at 0.000610352 µM [1, 4]: 3.47% | inhibition at 0.000610352 µM [1, 5]: 2.26% | inhibition at 0.00244141 µM [1, 3]: -3.38% | inhibition at 0.00244141 µM [1, 4]: -2.94% | inhibition at 0.00244141 µM [1, 5]: -3.82% | inhibition at 0.00976562 µM [1, 3]: -3.51% | inhibition at 0.00976562 µM [1, 4]: -1.53% | inhibition at 0.00976562 µM [1, 5]: -5.5% | inhibition at 0.0390625 µM [1, 3]: 1.51% | inhibition at 0.0390625 µM [1, 4]: 3.47% | inhibition at 0.0390625 µM [1, 5]: -0.452% | inhibition at 0.15625 µM [1, 3]: 95.5% | inhibition at 0.15625 µM [1, 4]: 96% | inhibition at 0.15625 µM [1, 5]: 95% | inhibition at 0.625 µM [1, 3]: 97.6% | inhibition at 0.625 µM [1, 4]: 96.9% | inhibition at 0.625 µM [1, 5]: 98.4% | inhibition at […] [1, 3]: 98.6% | inhibition at […] [1, 4]: 99.4% | inhibition at […] [1, 5]: 97.8% | inhibition at 10 µM [1, 3]: 102% | inhibition at 10 µM [1, 4]: 103% | inhibition at 10 µM [1, 5]: 102%

IC50 [1]: 82 nM | IC50 [2]: > 10000 nM
Compound: CCc1c(N2CCN(C(=O)c3ncnc(C)c3O)CC2)c(=O)n2nc(-c3ccc4nccn4c3)nc2n1CC(=O)Nc1ccc(C(F)(F)F)cc1Cl [P38]

IC50 (WRN enzyme): 2.2 nM | IC50 [1]: 72 nM | IC50 [2]: 9110 nM
Compound: CCc1c(N2CCN(C(=O)c3ncccc3O)CC2)c(=O)n2nc(-c3cc4cn[nH]c4s3)nc2n1CC(=O)Nc1ccc(C(F)(F)F)cc1Cl [P13]

IC50 [1]: 54 nM | IC50 [2]: > 10000 nM
Compound: CCc1c(N2CCN(C(=O)c3ncnc(C)c3O)CC2)c(=O)n2nc(-c3cc4n(c3)CCOC4)nc2n1CC(=O)Nc1ccc(C(F)(F)F)cc1Cl [P45]

IC50 [1]: 46 nM | IC50 [2]: > 10000 nM
Compound: CCc1ccc(NC(=O)Cn2c(CC)c(N3CCN(C(=O)c4ncnc(C)c4O)CC3)c(=O)n3nc(-c4cc5c(s4)COC5)nc23)c(C)c1 [P27]

IC50 [1]: 33 nM | IC50 [2]: > 10000 nM
Compound: CCc1c(N2CCN(C(=O)c3ncnc(C)c3O)CC2)c(=O)n2nc(-c3cc4c(s3)COC4)nc2n1CC(=O)Nc1ccc(C(F)(F)F)c(F)c1C [P30]
